{"source": "patent US20040097411A1", "about": "“Method of treating left ventricular dysfunction” (Allegheny-Singer Research Institute, priority 2002, published 2004)", "key": {"[1]": {"tested_on": "conscious, chronically instrumented dogs", "experiment": "Acute graded infusion, hemodynamic effects in conscious chronically instrumented dogs (normal and advanced dilated cardiomyopathy)", "format": "in vivo, dog", "from_the_text": "FIGS. 2a-2d show the dose response to rGLP-1 in normal conscious dogs and conscious dogs with advanced DCM compared to the response to the sympathomimetic, dobutamine.\nFIG. 1 illustrates characteristic instrumentation of conscious, chronically instrumented dogs studied in the laboratory. Under sterile surgical technique, the animals are instrumented as indicated and allowed to recover fully from their surgery. At the time, they are taught to lie quietly on the experimental table before study. To determine if acute GLP-1 (7-36 amide) infusion is associated with hemodynamic effects in conscious chronically instrumented dogs, graded infusions for ten minutes at doses of 1.25, 2.5, 5, 10 and 20 pmol/kg/min in six normal dogs and in six dogs with advanced dilated cardiomyopathy were studied. The response of the graded infusion to the classic iontopic agent, Dobutamine, (2.5, 5, 7.5, 10 and 15μ/kg/min.) was compared. […] Nikolaidis, L A, Hentosz, T, Doverspike, A, et al., “Catecholamine stimulation is associated with impaired myocardial O2 utilization in heart failure,” Cardiovas. Res., 2002;53:392-404, incorporated by reference herein."}, "[2]": {"tested_on": "conscious dogs with advanced DCM", "experiment": "48 hour intravenous infusion in conscious dogs with advanced heart failure (DCM): hemodynamics, sympathetic activity, coronary vasodilation", "format": "in vivo, dog", "from_the_text": "FIGS. 3a-3d show the effects of r GLP-1 on LV systolic pressure, LV end diastolic pressure, LV dP/dt, and heart rate in conscious dogs with advanced DCM compared to saline control.\nFIGS. 4a-4d show the effects of rGLP-1 on cardiac output, stroke volume, LV ejection fraction, systemic vascular resistance in conscious dogs with advanced DCM compared to saline control.\nFIGS. 5a and 5b show the effects of rGLP-1 on stroke work and LV external efficiency in conscious dogs with advanced DCM compared to saline control.\nFIGS. 6a and 6b show the effects of rGLP-1 on transmyocardial norepinephrine uptake as a reflection of sympathetic drive to the myocardium in conscious dogs with advanced DCM compared to saline controls.\nFIGS. 7a and 7b show the effects of rGLP-1 on endothelial dependent coronary vasodilation in conscious dogs. Advanced DCM was associated with impaired coronary flow responses to acetylcholine. These responses were restored following 48-hour infusion of rGLP-1. The response to the non-endothelial dependent vasodilator, nitroglycerine was unaffected.\n(§1) A 48 hour continuous intravenous infusion of GLP-1 (7-36 amide), (1.5 pmol/kg/min) in five normal dogs to determine the hemodynamic effect of chronic infusion in the absence of dilated cardiomyopathy was conducted. […] FIGS. 3-5 illustrates the effects of GLP-1 (7-36 amide) infusion (1.5 pmol/kg/min) intravenously for 48 hours in 20 conscious, chronically instrumented animals with advanced heart failure. These effects have been compared to similarly instrumented animals with advanced heart failure that received a control saline infusion of equal volume ([…]) illustrate the hemodynamic effects of chronic GLP-1 infusion in advanced DCM. GLP-1 (7-36 amide) infusion was associated with a restoration of left ventricular pressure, improvement in contractility, improvement in cardiac output, and reduction in heart rate and LVEDP. […] GLP-1 was associated with restoration of endothelial dependent vaso dilatation response to acetylcholine (FIG. 7). […] GLP-1 had […] increased plasma insulin levels in the setting of euglycemia."}, "[3]": {"details": "cited from earlier work; for plasma insulin levels: hyperglycemia (10.4 mmol/l, 187 mg/dl), GIP 2.0, GLP-1 1.5 pmol·kg−1·min−1; for insulinotropic action: normal subjects during euglycemia"}, "[4]": {"tested_on": "conscious dogs with advanced DCM", "experiment": "Myocardial substrate uptake and metabolic parameters in dogs with advanced DCM (Table 1)", "format": "in vivo, dog", "details": "for Glucose myocardial uptake / Lactate myocardial uptake / NE (transmyocardial norepinephrine uptake) / NEFA myocardial uptake / Insulin/Glucagon: GLP-1 group; for Insulin/Glucagon: insulin pmol/L to glucagon pg/ml", "description": "as §1"}, "[5]": {"tested_on": "adults presenting with severe acute myocardial infarction", "experiment": "72 hour continuous intravenous infusion in adults with severe acute myocardial infarction", "format": "in vivo, human", "description": "The effects of continuous intravenous infusion of GLP-1 (1.5 pmol/kg/min) intravenously for 72 hours was studied in ten adults presenting with severe acute myocardial infarction. These were compared to eleven adults with similar large myocardial infarction (LVEF<35%) all of whom underwent percutaneous coronary intervention and subsequently were treated for 72 hours thereafter."}, "rat cardiomyocytes": {"tested_on": "rat cardiomyocytes", "details": "in vitro; cited from earlier work"}, "normal dogs": {"tested_on": "normal dogs", "experiment": "48 hour continuous intravenous infusion in normal dogs, hemodynamic effect", "format": "in vivo, dog", "details": "1.5 pmol/kg/min i.v. 48 hour", "description": "as §1"}, "restrained rats": {"tested_on": "restrained rats", "details": "rat, in vivo, sc; cited from earlier work"}, "[6]": {"details": "when GIP is administered; cited from earlier work"}, "[7]": {"details": "1.5 pmol/kg/min i.v. 48 hours, advanced heart failure, vs saline"}, "[8]": {"details": "48-hour infusion, advanced DCM, FIG. 7"}, "[9]": {"details": "hyperglycemia-only control ~280"}, "[10]": {"details": "Baseline (before CHF and infusion)"}, "[11]": {"details": "advanced DCM, vs saline controls"}, "[12]": {"details": "graded infusions for ten minutes, 1.25-20 pmol/kg/min, normal dogs and dogs with advanced dilated cardiomyopathy"}}, "note": "Where two headings read alike, the source gives them in different places.", "data": [{"compound": "CC(CCc1ccc(O)cc1)NCCc1ccc(O)c(O)c1", "note": "(stereo not drawn) [Dobutamine, reference compound]", "values": [{"measurement": "hemodynamic effects of graded infusion", "setting": "[1]; dogs in heart failure", "result": "de-sensitized effects"}, {"measurement": "hemodynamic effects of graded infusion", "setting": "[1]; normal dogs", "result": "predictable effects"}]}, {"compound": "GLP-1 (7-36 amide)", "values": [{"measurement": "LVEDP", "setting": "[2]; [7]", "result": "reduction"}, {"measurement": "cardiac output", "setting": "[2]; [7]", "result": "improvement"}, {"measurement": "contractility", "setting": "[2]; [7]", "result": "improvement"}, {"measurement": "heart rate", "setting": "[2]; [7]", "result": "reduction"}, {"measurement": "left ventricular pressure", "setting": "[2]; [7]", "result": "restoration"}, {"measurement": "endothelial dependent vasodilatation (coronary flow) response to acetylcholine", "setting": "[2]; [8]", "result": "restoration"}, {"measurement": "response to the non-endothelial dependent vasodilator nitroglycerine", "setting": "[2]; [8]", "result": "unaffected"}, {"measurement": "endothelial dependent vasodilatation (coronary flow) response to acetylcholine", "setting": "[2]; 48-hour infusion, advanced DCM, FIG. 7, listed as rGLP-1", "result": "restored"}, {"measurement": "myocardial sympathetic activity", "setting": "[2]; infusion compared to saline, FIG. 6", "result": "suppression"}, {"measurement": "plasma insulin levels", "setting": "[3]; hyperglycemia-only control 47", "result": "~333", "unit": "μU/ml"}, {"measurement": "plasma insulin levels", "setting": "[3]; [9]", "result": "~2000", "unit": "pmol/L"}, {"measurement": "incretin potency comparison", "setting": "[3]; insulinotropic action during hyperglycemia", "result": "more potent than GIP"}, {"measurement": "insulinotropic action", "setting": "[3]", "result": "insulinotropic"}, {"measurement": "Glucose myocardial uptake", "setting": "[4]; 24 hrs of infusion", "result": "8.72 ± 1.05", "unit": "µmol/min"}, {"measurement": "Lactate myocardial uptake", "setting": "[4]; 24 hrs of infusion", "result": "3.61 ± 0.62", "unit": "µmol/min"}, {"measurement": "NE (transmyocardial norepinephrine uptake)", "setting": "[4]; 24 hrs of infusion", "result": "26.3 ± 3.1", "unit": "pmol/min"}, {"measurement": "NEFA myocardial uptake", "setting": "[4]; 24 hrs of infusion", "result": "4.53 ± 0.58", "unit": "µmol/min"}, {"measurement": "Glucose myocardial uptake", "setting": "[4]; 48 hrs of infusion", "result": "7.00 ± 0.94", "unit": "µmol/min"}, {"measurement": "Lactate myocardial uptake", "setting": "[4]; 48 hrs of infusion", "result": "4.04 ± 0.74", "unit": "µmol/min"}, {"measurement": "NE (transmyocardial norepinephrine uptake)", "setting": "[4]; 48 hrs of infusion", "result": "30.5 ± 4.9", "unit": "pmol/min"}, {"measurement": "NEFA myocardial uptake", "setting": "[4]; 48 hrs of infusion", "result": "5.16 ± 0.73", "unit": "µmol/min"}, {"measurement": "Insulin/Glucagon", "setting": "[4]; 48 hrs of infusion", "result": "3.12 ± 0.24"}, {"measurement": "Glucose myocardial uptake", "setting": "[4]; [10]", "result": "6.67 ± 1.22", "unit": "µmol/min"}, {"measurement": "Lactate myocardial uptake", "setting": "[4]; [10]", "result": "4.78 ± 1.04", "unit": "µmol/min"}, {"measurement": "NE (transmyocardial norepinephrine uptake)", "setting": "[4]; [10]", "result": "30.9 ± 4.8", "unit": "pmol/min"}, {"measurement": "NEFA myocardial uptake", "setting": "[4]; [10]", "result": "5.23 ± 0.83", "unit": "µmol/min"}, {"measurement": "Insulin/Glucagon", "setting": "[4]; Baseline", "result": "1.36 ± 0.21"}, {"measurement": "Glucose myocardial uptake", "setting": "[4]; CHF (before infusion)", "result": "3.44 ± 0.81", "unit": "µmol/min"}, {"measurement": "Lactate myocardial uptake", "setting": "[4]; CHF (before infusion)", "result": "2.64 ± 0.91", "unit": "µmol/min"}, {"measurement": "NE (transmyocardial norepinephrine uptake)", "setting": "[4]; CHF (before infusion)", "result": "18.7 ± 3.6", "unit": "pmol/min"}, {"measurement": "NEFA myocardial uptake", "setting": "[4]; CHF (before infusion)", "result": "3.17 ± 0.61", "unit": "µmol/min"}, {"measurement": "Insulin/Glucagon", "setting": "[4]; CHF (before infusion)", "result": "1.79 ± 0.29"}, {"measurement": "plasma glucagon levels", "setting": "[4]; advanced DCM", "result": "effective in reducing"}, {"measurement": "myocardial glucose uptake", "setting": "[4]; [11]", "result": "enhanced"}, {"measurement": "ratio of insulin (pmol/L) to glucagon (pg/ml)", "setting": "[4]; [11]", "result": "significant increase"}, {"measurement": "plasma insulin levels", "setting": "[4]; setting of euglycemia", "result": "little effect"}, {"measurement": "left ventricular hemodynamics", "setting": "[5]; 1.5 pmol/kg/min i.v. 72 hours after PCI, vs standard care, FIG. 8", "result": "overall improvement"}, {"measurement": "left ventricular function", "setting": "[5]; patients with large myocardial infarctions, 1.5 pmol/kg/min i.v. 72 hours", "result": "improvement"}, {"measurement": "cAMP", "setting": "rat cardiomyocytes", "result": "increases"}, {"measurement": "myocyte contractility", "setting": "rat cardiomyocytes", "result": "no effect"}, {"measurement": "cardiac output", "setting": "[1]; [12]", "result": "no significant, dose related effects"}, {"measurement": "heart rate", "setting": "[1]; [12]", "result": "no significant, dose related effects"}, {"measurement": "left ventricular dP/dt", "setting": "[1]; [12]", "result": "no significant, dose related effects"}, {"measurement": "left ventricular pressure", "setting": "[1]; [12]", "result": "no significant, dose related effects"}, {"measurement": "acute hemodynamic effects (dose response)", "setting": "[1]; normal conscious dogs and conscious dogs with advanced DCM, FIGS. 2a-2d", "result": "no acute hemodynamic effects"}, {"measurement": "hemodynamic effects of chronic infusion", "setting": "normal dogs", "result": "no significant hemodynamic effects"}]}, {"compound": "exendin-4 [excendin 4]", "values": [{"measurement": "blood pressure", "setting": "restrained rats", "result": "hypertension"}, {"measurement": "heart rate", "setting": "restrained rats", "result": "tachycardia"}]}, {"compound": "glucose-dependent insulinotropic polypeptide [GIP]", "values": [{"measurement": "plasma insulin levels", "setting": "[3]; hyperglycemia-only control 47", "result": "~150", "unit": "μU/ml"}, {"measurement": "plasma insulin levels", "setting": "[3]; [9]", "result": "~900", "unit": "pmol/L"}, {"measurement": "insulinotropic action", "setting": "[3]", "result": "not"}, {"measurement": "increase of B-cell sensitivity to second-generation sulfonylurea", "setting": "[6]", "result": 2, "unit": "fold"}]}]}
